According to publication PMC8217011, “Natural brominated phenoxyphenols kill persistent and biofilm-incorporated cells of MRSA and other pathogenic bacteria” (Applied Microbiology and Biotechnology, 2020):
In brackets after ≈: the same amount, converted by molar mass. Several values for one entry are separate records, joined by “and”; a condition that tells them apart may be missing. Equal entries are not always repeated.

Assays:
persisters of MRSA Mu50 = experiment: Antipersister activity assay (Resazurin); assay type: cell-based; settings: Staphylococcus aureus, 24 h, read-out: MIC against persisters
Protocol: Cultures were, if not stated differently, incubated at 37 °C with aeration and shaking (150 rpm) in Mueller-Hinton broth (MHB). Bacteria were freshly incubated at the next morning from an overnight pre-culture for actively growing bacteria to an OD600 nm of approx. 0.6. To ensure persistent growth form, the bacteria were grown overnight until a density at OD600 nm > 5.0 was obtained. For biofilm growth, some colonies from a Mueller-Hinton agar (MHA) plate were picked and resuspended in MHB. Cell density has been adjusted to OD600 nm = 0.8, and cells were sown into a flat-bottom 96-well plate to be incubated statically at 37 °C with aeration. Studies were mainly performed with S. aureus Mu50.
Sterile U-bottom 96-well polystyrene plates were used for the assay. The wells were prepared with a final volume of 50 μL phosphate-buffered saline (PBS, NaCl = 137 mM, KCl = 2.7 mM, NaHPO4 = 10 mM, KH2PO4 = 1.8 mM, pH = 7.4) containing a 2-fold serial dilution of compounds ranging from 100 to 0.78 μM. S. aureus was cultivated as described above and washed three times with PBS before adjusting the cell density to approx. 2 × 10^7 cells/mL (OD600 nm = 0.08). […]
Viability of bacterial cells was estimated employing the Resazurin dye reduction assay. […] Finally, the fluorescence was quantified in a plate reader with 535-nm excision and 590-nm emission wavelengths. […]

[1] = tested on: S. aureus mutant M2 (parental strain ATCC 25923); experiment: MIC of spontaneously resistant mutant; assay type: cell-based; settings: Staphylococcus aureus, ATCC25923
Protocol: (§1) The minimal inhibitory concentration (MIC) has been determined according to the CSLI guidelines (CLSI [2012]). Briefly, in a sterile polystyrene U-bottom 96-well plate, a 2-fold serial dilution ranging from 100 to 0.78 μM of testing compounds has been prepared in 50 μL MHB. A freshly inoculated S. aureus culture was grown until OD600 nm of approx. 0.6 and diluted to 10^6 CFU/mL in MHB. Finally, 50 μL of the latter cell suspension was added to each well and then incubated statically for 18–24 h at 37 °C. MIC was determined using BacTiterGlo ATP assay (Promega, Madison, WI, USA) and Tecan Infinite F200 Pro (Tecan, Männedorf, Switzerland). Moxifloxacin and DMSO were used as positive and negative control, respectively. Sublethal concentrations of colistin (0.1 μM) were used in some experiments to increase the permeability of the gram-negative cell envelope for compound testing. For E. cloacae, a broth microdilution assay was performed using a serial 2-fold dilution in 96-well flat-bottomed plates (Falcon, BD Bioscience, Heidelberg) of both PPs in broth LB medium (Roth, Karlsruhe) at a concentration range of 50–0.024 μM.
(§2) Spontaneous resistant mutants have been generated with 2-bromo-PP and 3-bromo-PP to further investigate the mechanism of antibacterial action and resistance. Since isolation of spontaneous resistant mutants in one step was not successful on solid media containing 2-bromo-PP or 3-bromo-PP (i.e. resistance frequency < 10^−7 at 5-fold MIC), enrichment was done by passaging bacteria daily in liquid media containing increasing sublethal concentrations of PPs. […] Moreover, we observed cross-resistance between PPs since 2-bromo-PP-resistant mutants were also resistant against 3-bromo-PP and vice versa (Fig. 4a; Table 2).

[2] = tested on: S. aureus mutant M6 (parental strain Mu50); experiment: MIC of spontaneously resistant mutant; assay type: cell-based; settings: Staphylococcus aureus
Protocol: as §1, §2

[3] = tested on: S. aureus mutant M5 (parental strain Mu50); experiment: MIC of spontaneously resistant mutant; assay type: cell-based; settings: Staphylococcus aureus
Protocol: as §1, §2

[4] = tested on: S. aureus mutant M3 (parental strain ATCC 25923); experiment: MIC of spontaneously resistant mutant; assay type: cell-based; settings: Staphylococcus aureus, ATCC25923
Protocol: as §1, §2

S. aureus = experiment: Generation of spontaneous resistant mutants; assay type: cell-based, Staphylococcus aureus; settings: for fold increased MIC of mutants: after 15 passages in liquid media with increasing sublethal concentrations; for resistance frequency: one-step selection on solid media at 5-fold MIC
Source text: as §2

[5] = tested on: preformed biofilms of P. aeruginosa POA1; experiment: Antibiofilm activity assay, viability by Resazurin reduction; assay type: cell-based, Pseudomonas aeruginosa
pre-formed MRSA biofilms = experiment: Biofilm viability by CFU plating; assay type: cell-based, Staphylococcus aureus; settings: 24 h of treatment, 4× minimal biofilm inhibitory concentration, moxifloxacin 20 μM
Protocol: Additionally, biofilm viability was quantified by CFU plating. Biofilms were pregrown as described above and treated for 24 h with 4× minimal biofilm inhibitory concentrations as calculated from the Resazurin reduction assay. Biofilms were dispersed by pipetting followed by sonification in a water bath. Dilutions were plated on Mueller-Hinton agar plates and incubated overnight at 37 °C.

[6] = tested on: persisters of P. aeruginosa POA1; experiment: Antipersister activity assay (Resazurin); assay type: cell-based; settings: Pseudomonas aeruginosa, 24 h, read-out: MIC against persisters
[7] = tested on: preformed biofilms of MRSA Mu50; experiment: Antibiofilm activity assay, viability by Resazurin reduction; assay type: cell-based, Staphylococcus aureus; settings: preformed 24 h biofilms
Protocol: Sterile flat-bottom 96-well polystyrene plates were used for the assay. Some S. aureus colonies were picked from an MHA plate and resuspend in MHB + 10% glucose, and cell density was adjusted to 10^8 cells per mL. One hundred microlitres of cell suspension was added to each well, and the plate was incubated statically for 24 h to induce growth and maturation of biofilms. After 24 h, the wells were washed three times with PBS to remove planktonic cells, and compounds were added to the wells to check for antibiofilm activity. To check for inhibition of biofilm formation, compounds were added immediately after adding of cells to the wells in sublethal concentrations. Lysostaphin, moxifloxacin and DMSO served as positive and negative controls, respectively.
Viability was measured as described above utilizing the Resazurin reduction assay. Biofilm formation was measured using crystal violet staining as described elsewhere (Christensen et al. [1985]; Stepanovic et al. [2007]). Briefly, biofilms were washed three times with PBS and allowed to air dry before 0.1% (v/v) crystal violet solution (Waldeck GmbH & Co., Münster, Germany) was added to each well. The biofilms were stained for 15 min at room temperature (RT). […] Finally, 100 μL was transferred to a fresh 96-well plate to measure absorption at 600 nm with a plate reader.

preformed MRSA biofilms = experiment: Biofilm integrity (crystal violet staining, Alcian blue fluorescence microscopy); assay type: cell-based, Staphylococcus aureus
Protocol: Viability was measured as described above utilizing the Resazurin reduction assay. Biofilm formation was measured using crystal violet staining as described elsewhere (Christensen et al. [1985]; Stepanovic et al. [2007]). Briefly, biofilms were washed three times with PBS and allowed to air dry before 0.1% (v/v) crystal violet solution (Waldeck GmbH & Co., Münster, Germany) was added to each well. The biofilms were stained for 15 min at room temperature (RT). Afterwards, the plates were washed three times again with PBS, and 30% acetic acid was added for 30 min at RT to solubilise the dye. Finally, 100 μL was transferred to a fresh 96-well plate to measure absorption at 600 nm with a plate reader.
Biofilms were pre-grown as described above. Alcian blue staining was performed to stain the EPS. A 1% Alcian blue staining solution was prepared in 3% glacial acetic acid. Staining solution was added to the biofilm in sufficient amount to cover the whole biofilm and incubated for 30 min at RT. Next, the biofilm was washed twice with PBS, and 200 μL 10% formalin solution was added. Fluorescence microscopy was performed using a Nikon Eclipse TS100 fluorescence microscope.

SMILES: Oc1c(Br)cc(Br)cc1Oc1ccc(Br)cc1Br [2-bromo-PP, 4,6-dibromo-2-(2′,4′-dibromophenoxy)phenol]
- MIC (persisters of MRSA Mu50): 12.5 µM (≈ 6.27 µg/mL)
- MIC90 [1]: 1.56 µM and 0.78 µg/mL
- MIC90 [2]: 0.78 µM and 0.39 µg/mL
- MIC90 [3]: 1.56 µM and 0.78 µg/mL
- MIC90 [4]: 0.78 µM and 0.39 µg/mL
- fold increased MIC of mutants (S. aureus): 4 fold
- resistance frequency (S. aureus): < 10^−7
- concentration of complete inhibition of cell viability in biofilms [5]: 25 µM
- reduction in viable cell counts in biofilms (pre-formed MRSA biofilms): ca. 5 order of magnitudes
- MIC [6]: 12.5 µM (≈ 6.27 µg/mL)
- concentration inhibiting viability of cells in biofilms (maximal effect) [7]: 100 µM
- biofilm integrity / dispersal (preformed MRSA biofilms): Neither 2-bromo-PP (light blue triangle) nor 3-bromo-PP (blue inverted triangle) disperse biofilms

SMILES: Oc1c(Br)cc(Br)c(Br)c1Oc1ccc(Br)cc1Br [3-bromo-PP, 3,4,6-tribromo-2-(2′,4′-dibromophenoxy)phenol]
- MIC (persisters of MRSA Mu50): 6.25 µM (≈ 3.63 µg/mL)
- MIC90 [1]: 3.12 µM and 1.81 µg/mL
- MIC90 [2]: 3.12 µM and 1.81 µg/mL
- MIC90 [3]: 3.12 µM and 1.81 µg/mL
- MIC90 [4]: 6.25 µM and 3.63 µg/mL
- fold increased MIC of mutants (S. aureus): 32 fold
- resistance frequency (S. aureus): < 10^−7
- concentration of complete inhibition of cell viability in biofilms [5]: 50 µM
- reduction in viable cell counts in biofilms (pre-formed MRSA biofilms): ca. 5 order of magnitudes
- MIC [6]: 50 µM (≈ 29 µg/mL)
- concentration inhibiting viability of cells in biofilms (maximal effect) [7]: 12.5 µM
- biofilm integrity / dispersal (preformed MRSA biofilms): Neither 2-bromo-PP (light blue triangle) nor 3-bromo-PP (blue inverted triangle) disperse biofilms
